Measured values as given in patent US9597314B2, “Beta-lactamylalkanoic acids for treating premenstrual disorders” (AZEVAN PHARMACEUTICALS, INC., priority 2005, dated 2017).

Assays:
vasopressin V1a receptor = target: T1, vasopressin V1a receptor (Homo sapiens, UniProt P37288); assay: Inhibition of phosphatidylinositol turnover; type: cell-based; details: hV1a cells
T1 construct: host or cells: CHO cells (hV1a cell line), whole adherent cells
Text: Inhibition of phosphatidylinositol turnover. The physiological effects of vasopressin are mediated through specific G-protein coupled receptors. The vasopressin V1a receptor is coupled to the Gq/G11 family of G proteins and mediates phosphatidylinositol turnover. The agonist or antagonist character of the compounds of the invention may be determined by their ability to inhibit vasopressin-mediated turnover of phosphatidylinositol by the procedure described in the following paragraphs.
Cell culture and labeling of cells. Three days prior to the assay, near-confluent cultures of hV1a cells were dissociated and seeded in 6-well tissue culture plates, about 100 wells being seeded from each 75 cm^2 flask (equivalent to 12:1 split ratio).
Incubations. All assays were in triplicate except for basal and 10 nM AVP (both n=6). AVP ((arginine vasopressin), Peninsula Labs, Belmont, Calif., USA (#8103)) was dissolved in 0.1N acetic acid. Test agents were dissolved in DMSO and diluted in DMSO to 200 times the final test concentration. […] The order of incubations was randomized. Incubations were initiated by removing the prelabeling medium, washing the monolayer once with 1 mL of 0.9% NaCl, and transferring the contents of the assay tubes to corresponding wells. The plates were incubated for 1 hour at 37° C. Incubations were terminated by removing the incubation medium and adding 500 μL of ice cold 5% (w/v) trichloroacetic acid and allowing the wells to stand for 15 min.
Measurement of [^3H]inositol phosphates. BioRad Poly-Prep Econo-Columns were packed with 0.3 mL of AG 1 X-8 100-200 formate form resin. Resin was mixed 1:1 with water and 0.6 mL added to each column. Columns were then washed with 10 mL water. Scintillation vials (20 mL) were placed under each column. For each well, the contents were transferred to a minicolumn, after which the well was washed with 0.5 mL distilled water, which was also added to the minicolumn. The columns were then washed twice with 5 mL of 5 mM myo-inositol to elute free inositol. Aliquots (1 mL) were transferred to 20 mL scintillation vials and 10 mL of Beckman Ready Protein Plus added. After the myo-inositol wash was complete, empty scintillation vials were placed under the columns, and [^3H]inositol phosphates were eluted with three additions of 1 mL 0.5 M ammonium formate containing 0.1 N formic acid. Elution conditions were optimized to recover inositol mono-, bis-, and trisphosphates, without eluting the more metabolically inert tetrakis-, pentakis-, and hexakis-phosphates. To each sample was added 10 mL of a high salt capacity scintillation fluid such as Tru-Count High Salt Capacity or Packard Hionic-Fluor. Inositol lipids were measured by adding 1 mL of 2% sodium dodecyl sulfate (SDS) to each well, allowing the wells to stand for at least 30 min., and transferring the solution to 20 mL scintillation vials, to which 10 mL Beckman Ready Protein Plus scintillation fluid was then added. Samples were counted in a Beckman LS 3801 liquid scintillation counter for 10 min. Total inositol incorporation for each well was calculated as the sum of free inositol, inositol phosphates, and inositol lipids.
Data analysis: concentration-inhibition experiments. Concentration-response curves for AVP and concentration-inhibition curves for test agents versus 10 nM AVP were analyzed by nonlinear least-squares curve-fitting to a 4-parameter logistic function. Parameters for basal and maximal inositol phosphates, EC50 or IC50, and Hill coefficient were varied to achieve the best fit. The curve-fitting was weighted under the assumption that the standard deviation was proportional to dpm of radioactivity. Full concentration-response curves for AVP were run in each experiment, and IC50 values were converted to Ki values by application of the Cheng-Prusoff equation, based on the EC50 for AVP in the same experiment. Inositol phosphates were expressed as dpm per 10^6 dpm of total inositol incorporation.

[1] = tested on: panel of 63 other receptors; assay: Comparative binding to other receptors showing selectivity (NOVASCREEN); details: 100 nM
Text: Comparative binding to other receptors showing selectivity.

[2] = tested on: AVP-induced rise in blood pressure; assay: Blood pressure pharmacology rats; type: in vivo
Text: Blood pressure pharmacology rats. […] Prior to menses, blood vessels in the uterine wall become engorged with blood. Vasopressin, acting through V1a receptors, causes constriction of both uterine and vascular smooth muscle contributing to the discomfort and pain of primary dysmenorrhea. Vasopressin is one of the endogenous factors that maintains vascular tone. Blocking the V1a receptors localized to smooth muscle may ameliorate the symptoms of primary dysmenorrhea. Elevated concentrations of vasopressin, acting through V1a receptors causes constriction of both uterine and vascular smooth muscle contributing to the discomfort and pain of primary dysmenorrhea. There are no animal models for evaluating receptor antagonists on dysmenorrhea. […]
Male rats were divided into five groups, and each group was tested with placebo, or one of four doses of one or more of the compounds described herein, such as with Example 225 at 0.16, 0.4, 1.0, and 2.5 mg/kg. Rats were treated orally with the compound and effects on blood pressure were measured 90-150 min later as follows. Under isoflurane anesthesia blood pressure was recorded through a cannula in the femoral artery. To increase systemic blood pressure AVP was administered (25 ng/kg) through a cannula in the femoral vein; the change in mean blood pressure was recorded two minutes following injection of AVP.

V1a = V1a (Homo sapiens, UniProt P37288); assay: Human vasopression V1a receptor binding assay; parameters: host or cells: CHO cells (hV1a cell line), whole adherent cells
Chain of V1a (P37288 whole entry): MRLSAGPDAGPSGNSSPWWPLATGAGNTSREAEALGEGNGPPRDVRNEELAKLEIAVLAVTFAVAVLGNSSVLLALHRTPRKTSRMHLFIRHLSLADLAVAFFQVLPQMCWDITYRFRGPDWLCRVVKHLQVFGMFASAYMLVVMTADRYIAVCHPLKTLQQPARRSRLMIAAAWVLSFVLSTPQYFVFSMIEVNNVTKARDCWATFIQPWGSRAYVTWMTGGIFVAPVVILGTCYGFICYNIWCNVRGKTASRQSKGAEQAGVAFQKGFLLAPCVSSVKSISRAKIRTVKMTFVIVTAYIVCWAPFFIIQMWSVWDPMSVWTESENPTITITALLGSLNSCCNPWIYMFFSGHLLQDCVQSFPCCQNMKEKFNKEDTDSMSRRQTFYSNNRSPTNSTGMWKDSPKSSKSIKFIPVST
Summary of the method: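 Whole CHO cells stably expressing human V1a receptor competed 1 nM 3H-AVP against 10-fold serial compound dilutions (DMSO) in pH 7.0 Hepes/BSA/DMEM buffer, 45 min at 37° C.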

T1 sequence (P37288 whole entry): as above

Ki (vasopressin V1a receptor; from IC50 by Cheng-Prusoff equation, read-out: Ki, suppression of the action of AVP): 0.05 nM
IC50 (vasopressin V1a receptor; versus 10 nM AVP, inositol phosphates, read-out: IC50, suppression of the action of AVP): 2.68 nM
IC50 (V1a; hV1a cell line (CHO), 1 nM 3H-AVP, Table 17, read-out: V1a Binding Affinity (IC50 (nM))): 1.08 nM
binding curve against [3H]-AVP (V1a; hV1a cell line, 10 fold dilutions of test compound): dose-dependent competitive binding curve
Structure (SMILES): CN(Cc1cccc(C(F)(F)F)c1)C(=O)[C@@H](CC(=O)N1CCC(N2CCCCC2)CC1)N1C(=O)[C@@H](N2C(=O)OC[C@@H]2c2ccccc2)[C@H]1/C=C/c1ccccc1 [Example 225, 2(R)-[[4-(Piperidinyl)piperidinyl]carbonylmethyl]-2-[3(S)-(4(S)-phenyloxazolidin-2-on-3-yl)-4(R)-(2-styryl)azetidin-2-on-1-yl]acetic acid N-methyl-N-(3-trifluoromethylbenzyl)amide]
suppression of the action of AVP (vasopressin V1a receptor; inositol phosphates): dose-dependent suppression of the action of AVP
selective binding against panel of 63 other receptors [1]: bound only to the V1a vasopressin receptor
inhibition of the AVP-induced rise in blood pressure ([2]; male rats, oral 0.16, 0.4, 1.0, 2.5 mg/kg, 90-150 min before AVP 25 ng/kg): dose-dependent inhibition of the AVP-induced rise in blood pressure
reduction in blood pressure as compared to vehicle and the two lower doses ([2]; rats, oral 1 and 2.5 mg/kg): significant (p<0.01) reduction in blood pressure
